Assay [1] deals with T1, 5-HT2A receptor (Homo sapiens, UniProt P28223).
T1 construct: purchased PerkinElmer ES-313-M400UA
Kind of assay: [3H]ketanserin competition binding assay (Scintillation Proximity Assay). The conditions noted are these: fixed (1 nM) [3H]ketanserin; membranes containing 5-HT2A; FIG. 11E. The source says:
Evaluation of drug binding is an essential step to characterization of all drug-target interactions (Fang 2012, Exp Opin Drug Discov 7:969). The binding affinity of a drug to a target is traditionally viewed as an acceptable surrogate of its in vivo efficacy (Núnez et al., 2012, Drug Disc Today 17: 10). Competition assays, also called displacement or modulation binding assays, are a common approach to measure activity of a ligand at a target receptor (Flanagan 2016, Methods Cell Biol 132: 191). In these assays, standard radioligands acting either as agonists or antagonists are ascribed to specific receptors. […] After incubation, the samples were read on a MicroBeta 2 Microplate Counter (Perkin Elmer). […] Equilibrium binding constants for ketanserin (Kd) were determined from saturation binding curves using the ‘one-site saturation binding analysis’ method of GraphPad PRISM software (Version 9.2.0). […] Ki values were calculated from the competition displacement data using the competitive binding analysis from GraphPad PRISM software. […] Specific binding in counts per minute (cpm) was calculated by subtracting non-specific binding from total binding. Specific binding (pmol/mg) was calculated from pmol of [^3H]ketanserin bound per mg of protein in the assay. The Kd was calculated by fitting the data with the one-site binding model of PRISM software (version 9.2.0).
A general note: SPA uses beads or plates that emit light when radiolabelled molecules are held near them.

For assay [2], the target named is T2, 5-HT1A receptor (Homo sapiens, UniProt P08908).
T2 construct: host or cells: CHO-K1 (stably expressing 5-HT1A and Gα15)
T2 sequence (P08908 1-422): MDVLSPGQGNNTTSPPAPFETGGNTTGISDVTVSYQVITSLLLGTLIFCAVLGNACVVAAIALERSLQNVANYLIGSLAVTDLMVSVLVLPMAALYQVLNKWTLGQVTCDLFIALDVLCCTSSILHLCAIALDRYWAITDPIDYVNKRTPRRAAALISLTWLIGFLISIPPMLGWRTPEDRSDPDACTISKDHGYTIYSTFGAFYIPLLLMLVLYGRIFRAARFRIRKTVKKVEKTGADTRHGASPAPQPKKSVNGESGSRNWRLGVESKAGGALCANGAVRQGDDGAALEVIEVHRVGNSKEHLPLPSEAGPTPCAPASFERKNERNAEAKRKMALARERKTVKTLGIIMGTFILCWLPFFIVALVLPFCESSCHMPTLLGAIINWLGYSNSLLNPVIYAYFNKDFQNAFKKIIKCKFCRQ
As to the kind of experiment: cAMP-Glo luminescence assay in +5-HT1A cells (CHO-K1/5-HT1A/Gα15) with forskolin. In kind it is cell-based. The conditions noted are these: +5HT1A cell cultures, fixed (4 μM) forskolin, n=3; for luminescence (cAMP) trend with decreasing ligand dosage, 5-HT1A modulation: FIGS. 11J, 11K; for % cAMP levels with decreasing ligand dosage, 5-HT1A activity: FIGS. 11L, 11M. From the text: CHO-K1/Gα15 (GenScript, M00257) (−5-HT1A) and CHO-K1/5-HT1A/Gα15 (GenScript, M00330) (+5-HT1A) cells lines were used. Briefly, CHO-K1/Gα15 is a control cell line that constitutively expresses Gα15 which is a promiscuous Gq protein. This control cell line lacks any transgene encoding 5-HT1A receptors, but still responds to forskolin; thus, cAMP response to forskolin should be the same regardless of whether or not 5-HT1A agonists are present. Conversely, CHO-K1/5-HT1A/Gα15 cells stably express 5-HT1A receptor in the CHO-K1 host background. […] In +5-HT1A cells, Gα15 may be recruited in place of Gαi/o, which could theoretically dampen cAMP response (Rojas and Fiedler 2016, Front Cell Neurosci 10: 272). […] In contrast, tryptophan is not known to activate, or modulate in any way, 5-HT1A receptors, and was thus used as a negative control. Cells were maintained in complete growth media as recommended by supplier (GenScript) which is constituted as follows: Ham's F12 Nutrient mix (HAM's F12, GIBCO #11765-047) with 10% fetal bovine serum (FBS) (Thermo Scientific #12483020), 200 μg/ml zeocin (Thermo Scientific #R25005) and/or 100 μg/ml hygromycin (Thermo Scientific #10687010). The cells were cultured in a humidified incubator with 37° C. and 5% CO2. Cells maintenance was carried out as recommended by the cell supplier. Briefly, vials with cells were removed from the liquid nitrogen and thawed quickly in 37° C. water bath. Just before the cells were completely thawed the vial's outside was decontaminated by 70% ethanol spray. The cell suspension was then retrieved from the vial and added to warm (37° C.) complete growth media, and centrifuged at 1,000 rpm for 5 minutes. The supernatant was discarded, and the cell pellet was then resuspended in another 10 ml of complete growth media, and added to the 10 cm cell culture dish (Greiner Bio-One #664160). The media was changed every third day until the cells were about 90% confluent. The ˜90% confluent cells were then split 10:1 for maintenance or used for experiment.
(§1) As 5-HT1A activation inhibits cAMP formation, the ability of test molecules to modulate 5-HT1A response was measured via changes in the levels of cAMP produced due to application of 4 μM forskolin. The change in intracellular cAMP levels due to the treatment of novel molecules was measured using cAMP-Glo Assay kit (Promega #V1501). […] Reduced ATP caused reduced conversion of luciferin to oxyluciferin, conferring diminished luminescence as the result of 5-HT1A activation. Conversely, enhanced luminescence was expected in cases where 5-HT1A receptor modulation—imparted by a test molecule—caused downstream increases in ATP, thus imparting enhanced conversion of luciferin to oxyluciferin.
(Cyclic AMP is a second messenger, typically raised through Gs and lowered through Gi signalling.)

For assay [3], the system named is CHO-K1/Gα15 (−5-HT1A) cells. As to the kind of experiment: cAMP-Glo assay in control −5-HT1A cells (CHO-K1/Gα15) with forskolin. It is filed as cell-based. Particulars: −5HT1A cell cultures; fixed (4 μM) forskolin; n=3; FIGS. 11L, 11M.
Description: CHO-K1/Gα15 (GenScript, M00257) (−5-HT1A) and CHO-K1/5-HT1A/Gα15 (GenScript, M00330) (+5-HT1A) cells lines were used. Briefly, CHO-K1/Gα15 is a control cell line that constitutively expresses Gα15 which is a promiscuous Gq protein. This control cell line lacks any transgene encoding 5-HT1A receptors, but still responds to forskolin; thus, cAMP response to forskolin should be the same regardless of whether or not 5-HT1A agonists are present. Conversely, CHO-K1/5-HT1A/Gα15 cells stably express 5-HT1A receptor in the CHO-K1 host background. […] In +5-HT1A cells, Gα15 may be recruited in place of Gαi/o, which could theoretically dampen cAMP response (Rojas and Fiedler 2016, Front Cell Neurosci 10: 272). […]
as §1

The values that follow come from US12378195B2, “Aminated psilocybin derivatives and methods of using” (Enveric Biosciences Canada Inc., priority 2021, dated 2025).

T1 sequence (P28223 whole entry): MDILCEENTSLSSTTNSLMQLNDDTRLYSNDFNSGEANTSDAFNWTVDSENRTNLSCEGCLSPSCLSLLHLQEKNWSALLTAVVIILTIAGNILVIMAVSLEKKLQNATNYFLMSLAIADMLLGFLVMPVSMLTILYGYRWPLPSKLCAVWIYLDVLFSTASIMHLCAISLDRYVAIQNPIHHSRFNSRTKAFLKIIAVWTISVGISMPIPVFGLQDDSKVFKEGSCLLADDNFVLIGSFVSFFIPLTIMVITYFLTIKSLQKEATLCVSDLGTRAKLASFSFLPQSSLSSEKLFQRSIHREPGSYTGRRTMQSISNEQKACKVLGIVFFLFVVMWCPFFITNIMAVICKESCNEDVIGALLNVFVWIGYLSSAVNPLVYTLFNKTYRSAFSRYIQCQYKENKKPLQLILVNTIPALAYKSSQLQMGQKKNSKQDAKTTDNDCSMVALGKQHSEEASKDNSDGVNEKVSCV

`CN(C)CCc1c[nH]c2cccc(O)c12` [psilocin]: the “competition binding curve at the 5-HT2A receptor” value in assay [1] is reported as “binding”.
For `CN(C)CCc1c[nH]c2ccccc12` [DMT], the “luminescence (cAMP) trend with decreasing ligand dosage, 5-HT1A modulation” value in assay [2] was 5-HT1A activity.
Consider `N[C@@H](Cc1c[nH]c2ccccc12)C(=O)O` [tryptophan], for which the “competition binding curve at the 5-HT2A receptor” value in assay [1] is “no binding”. In assay [2], the “luminescence (cAMP) trend with decreasing ligand dosage, 5-HT1A modulation” value was “lack of 5-HT1A modulation”.
On to `COc1c(N)ccc2[nH]cc(CCN)c12` [compound (IX)], for which the “% cAMP levels with decreasing ligand dosage, 5-HT1A activity” value in assay [2] is listed as 5-HT1A binding activity. Moreover, the “trend of increasing % cAMP levels with decreasing ligand dosage” value in assay [3] was “not observed”.
Turning to `NCCc1c[nH]c2ccc(O)cc12` [serotonin], the “% cAMP levels with decreasing ligand dosage, 5-HT1A activity” value in assay [2] is listed as 5-HT1A binding activity. The “trend of increasing % cAMP levels with decreasing ligand dosage” value in assay [3] was “not observed”.
